Measurements: US5994629A, “Positive selection” (priority 1991, dated 1999)

Tests used:
[1] = tested on: tobacco leaf disc containing an introduced β-glucuronidase gene; assay: Shoot regeneration with sterol glucuronides on tridemorph substrate; assay type: cell-based; conditions: sitosteryl glucuronide 12.5 mg/l and/or cholesteryl glucuronide 50 mg/l; tridemorph 0.1 mM and BA3GN sodium salt (5 mM); 30 days
[2] = tested on: Wild type explants; assay: Regenerated shoots selected by compounds in addition to mannose, wild type; assay type: cell-based; conditions: genotype Wild type
[3] = tested on: explants with the mannose 6-phosphate isomerase gene from E. coli; assay: Regenerated shoots selected by compounds in addition to mannose, M-6-P-isomerase; assay type: cell-based; conditions: genotype M-6-P-isomerase
[4] = biological target: β-glucuronidase from E. coli (Escherichia coli, UniProt P05804); assay: Hydrolysis by β-glucuronidase (GUS), HPLC/TLC; assay type: biochemical; conditions: for Hydrolysis by β-glucuronidase (GUS), result in words: 50 mM sodium phosphate buffer pH 7.0, 37° C., HPLC/TLC
β-glucuronidase from E. coli, sequence (P05804 whole entry, looked up): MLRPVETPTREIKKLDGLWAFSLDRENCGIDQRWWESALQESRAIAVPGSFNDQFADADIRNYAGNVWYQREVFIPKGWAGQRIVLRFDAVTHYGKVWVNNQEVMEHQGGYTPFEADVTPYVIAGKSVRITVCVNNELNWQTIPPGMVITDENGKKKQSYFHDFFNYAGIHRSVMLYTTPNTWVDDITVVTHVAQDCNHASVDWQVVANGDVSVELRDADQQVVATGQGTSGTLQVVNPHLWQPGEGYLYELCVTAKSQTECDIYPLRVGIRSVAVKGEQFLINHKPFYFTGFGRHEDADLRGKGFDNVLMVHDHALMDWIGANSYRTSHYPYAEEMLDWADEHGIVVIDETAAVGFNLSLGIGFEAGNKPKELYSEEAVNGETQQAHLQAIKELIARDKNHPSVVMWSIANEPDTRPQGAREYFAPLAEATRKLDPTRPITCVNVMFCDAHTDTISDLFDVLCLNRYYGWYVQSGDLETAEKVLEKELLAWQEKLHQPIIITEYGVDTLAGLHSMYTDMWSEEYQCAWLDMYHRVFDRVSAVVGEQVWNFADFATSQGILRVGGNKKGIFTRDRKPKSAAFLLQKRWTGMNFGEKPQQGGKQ
Protocol: […] […] This confirms the identity of the product as a conjugate of BA and β-D-glucuronic acid.
[…] The presence of hydrolysis products is then determined using HPLC and TLC.

[5] = tested on: leaf discs of tobacco without (GUS-) introduced β-glucuronidase genes; assay type: cell-based, Nicotiana tabacum 'Wisconsin 38'; conditions: test compounds at several concentrations up to 250 μM in MSO
[6] = tested on: leaf discs of tobacco with (GUS+) introduced β-glucuronidase genes; assay type: cell-based, Nicotiana tabacum 'Wisconsin 38'; conditions: test compounds at several concentrations up to 250 μM in MSO
[7] = tested on: sugar beet cotyledon explants; assay: Transformation of sugar beet, positive and negative selection; assay type: cell-based; conditions: 400 mg/l kanamycin sulphate + 1 mg/l BAP (100 explants) or + 15 mg/l BA3GN (177 explants)
Text: Seeds were germinated for 4 days in darkness on a substrate containing 0.7 g/l of agarose and 2 g/l of sucrose. The seedlings were then transferred to a Nunc container containing 1/2×MSO substrate and cultured for 3 days in the light. The cotyledons were removed from the seedlings, and the cotyledon explants were then brushed on the petiole with a small brush containing an Agrobacterium suspension, the Agrobacterium containing 35S-NPTII and 35S-GUS (OD 660=0.1). The cotelydons were then co-cultivatedfor 4 days on a substrate containing 1/10 MSO substrate and 200 μM acetosyringone. […] The regenerated shoots were then transferred to containers containing the same substrate. After 52 days on this substrate all the shoots were transferred to MSO substrate supplemented with 800 mg/l carbenicillin, 25 mg/l vancomycin and 0.1 mg/l BA. After 14 days GUS assays as described in Example 3 were performed on the selected plant material.

[8] = tested on: hypocotyl explants of winter oil seed rape V486; assay: Transgenic callus from oilseed rape, winter type V486; assay type: cell-based; conditions: 50 mg/l kanamycin sulphate
Protocol: (§1) Experiments were performed as described in Example 11, although with certain modifications. The plant species used were the very recalcitrant breeding lines "V486" of winter oil seed rape and "S487" of summer oilseed rape. Seeds were sterilized and germinated as described in Example 16. Hypocotyls were used as explants and were inoculated and co-cultured as described in Example 11. After co-cultivation the explants were transferred to MSO substrate containing 0.1 mg/l naphthylacetic acid, 0.01 mg/l gibberellic acid (GA3), 500 mg/l carbenicillin, 50 mg/l kanamycin sulphate and 6.0 g/l agarose. The substrate contained in addition either 1 mg/l BA or 3.75, 7.5 or 15.0 mg/l BA3GN sodium salt. The pH was adjusted to 5.8. The Agrobacterium used contained in its T-DNA a GUS gene and a neomycinphosphotransferase II gene driven by 35S promoters. GUS assays were performed after 8 weeks and callus showing an intense blue staining in most of the callus cells was registered as being GUS.

[9] = tested on: hypocotyl explants of oilseed rape; assay: Transgenic callus from oilseed rape, second section of Table 19; assay type: cell-based
Protocol: as §1

[10] = biological target: T1, GUS activity in plant tissue (Escherichia coli, UniProt P05804); assay: Histological GUS reaction (X-gluc) in plant species with saccharo 1,4-lactone; assay type: cell-based; conditions: saccharo 1,4-lactone 10 mM, pH 3-8, transgenic (1), GUS gene from E. coli
T1 construct: from tissue; host or cells: leaves of a number of plant species
T1 sequence (P05804 whole entry): as the sequence (P05804 whole entry, looked up) above

[11] = tested on: GUS activity in plant tissue; assay: as above; assay type: cell-based; conditions: saccharo 1,4-lactone 10 mM, pH 3-8
[12] = Chemical stability
[13] = tested on: non-transformed potato stem segments; assay: Inhibition by mannose of regeneration of shoots; assay type: cell-based, Solanum tuberosum
Protocol: This substrate is referred to hereafter as "selection/regeneration substrate". Regenerated plants are produced as described above, except that the shoot segments are not co-cultured with bacteria and the washing procedure consequential thereon is omitted. […] In general, mannose cannot be used as a carbohydrate source in most plant species. When mannose is added to plants it is metabolized and mannose 6-phosphate accumulates. Mannose 6-phosphate can be converted to fructose 6-phosphate by mannose 6-phosphate isomerase, the amount converted being dependent upon the activity of the isomerase. Such fructose 6-phosphate may be utilized by plants, but in principal high levels of mannose (whether or not an alternative carbohydrate source is available) are toxic to plants.

[14] = tested on: plant material transgenic for the mannose 6-phosphate isomerase gene; assay: Effect of methyl-3-O-glucose on selection of transgenic shoots on mannose; assay type: cell-based; conditions: mannose 15 g/l; MOG 0 g/l; no sucrose
Text: The transformed plant material is transgenic for the mannose 6-phosphate isomerase gene. After 21 days the selected shoots are harvested.

[15] = tested on: immature maize embryos; assay: Mannose selection of bombarded immature maize embryos; assay type: cell-based; conditions: selection on 10 g/L D-mannose for 3 weeks; 420 embryos
[16] = tested on: maize protoplasts; assay: Mannose selection in maize protoplast PEG-mediated transformation; assay type: cell-based; conditions: 2% mannose for one to two weeks; 47/17 million protoplasts
[17] = tested on: maize callus cultures; conditions: callus cultures of 4 maize lines; 0-20 g/L; three weeks

For CC(C)CCC[C@@H](C)[C@H]1CC[C@H]2[C@@H]3CC=C4C[C@@H](O[C@@H]5O[C@H](C(=O)O)[C@@H](O)[C@H](O)[C@H]5O)CC[C@]4(C)[C@H]3CC[C@]12C [Choesteryl-β-D-glucuronide, cholesteryl-β-D-glucuronide], the “Shoots per leaf disc” value [1] was 0.3.

In the case of N[C@@H]1C(O)O[C@H](CO)[C@@H](O)[C@@H]1O (stereo partly drawn) [D-mannosamine], the “Number of regenerated shoots per explant” value [2] is reported as 0 and the “Number of regenerated shoots per explant” value [3] is reported as 0.8.

With O=C([O-])[C@H]1O[C@@H](n2cnc(NCc3ccccc3)c3ncnc2-3)[C@H](O)[C@@H](O)[C@@H]1O.[Na+] the “Hydrolysis by β-glucuronidase (GUS), result in words” value [4] was “virtually complete removal”, the “removal of the glucuronide by GUS” value ([4]; 2500 Fishman units, 12 hours, 37° C., HPLC and TLC) was greater than 99% and the “Shoot formation, GUS-” value [5] was “+ ("+" means shoot formation at concentrations below 250 μM)”. The “Shoot formation, GUS+” value [6] was “+ ("+" means shoot formation at concentrations below 250 μM)”, the “GUS+ Shoots” value [7] was 4 and the “GUS+ shoots (%)” value [7] was 2.3%. For the same compound, the “GUS+ callus per callus” value ([8]; BA3GN 3.75 mg/l) was 7.1%, the “GUS+ callus per explant” value ([8]; BA3GN 3.75 mg/l) was 1.4% and the Explants with callus ([8]; BA3GN 3.75 mg/l, 8 weeks) was 19.0%. For the same compound, the Explants with callus ([8]; BA3GN 7.5 mg/l) was 23.0%, the “GUS+ callus per callus” value ([8]; BA3GN 7.5 mg/l) was 5.9% and the “GUS+ callus per explant” value ([8]; BA3GN 7.5 mg/l) was 1.4%. For the same compound, the Explants with callus ([8]; BA3GN 15.00 mg/l) was 30.6%, the “GUS+ callus per callus” value ([8]; BA3GN 15.00 mg/l) was 7.5% and the “GUS+ callus per explant” value ([8]; BA3GN 15.00 mg/l) was 2.3%. For the same compound, the “GUS+ callus per callus” value ([9]; BA3GN 3.75 mg/l) was 33.3%, the “GUS+ callus per explant” value ([9]; BA3GN 3.75 mg/l) was 1.7% and the Explants with callus ([9]; BA3GN 3.75 mg/l, 50 mg/l kanamycin sulphate) was 5.2%. The Explants with callus ([9]; BA3GN 7.5 mg/l) was 9.2%, the “GUS+ callus per callus” value ([9]; BA3GN 7.5 mg/l) was 25.0% and the “GUS+ callus per explant” value ([9]; BA3GN 7.5 mg/l) was 2.3%. The Explants with callus ([9]; BA3GN 15.00 mg/l) was 6.3%, the “GUS+ callus per callus” value ([9]; BA3GN 15.00 mg/l) was 14.2% and the “GUS+ callus per explant” value ([9]; BA3GN 15.00 mg/l) was 0.9%.

For c1ccc(CNc2ncnc3nc[nH]c23)cc1 [BA, N^6 -benzyladenine], the “Shoot formation, GUS-” value [5] was “+ ("+" means shoot formation at concentrations below 250 μM)”, the “Shoot formation, GUS+” value [6] was “+ ("+" means shoot formation at concentrations below 250 μM)” and the “GUS+ Shoots” value [7] was 0. The “GUS+ shoots (%)” value [7] was 0%, the Explants with callus ([8]; BA 1 mg/l) was 0% and the “GUS+ callus per callus” value ([8]; BA 1 mg/l) was 0%. For the same compound, the “GUS+ callus per explant” value ([8]; BA 1 mg/l) was 0%, the Explants with callus ([9]; BA 1 mg/l) was 0% and the “GUS+ callus per callus” value ([9]; BA 1 mg/l) was 0%. The “GUS+ callus per explant” value ([9]; BA 1 mg/l) was 0%.

In the case of O=C(O)[C@@H](O)[C@H]1OC(=O)[C@H](O)[C@H]1O [Saccharo 1,4-lactone], the “Histological GUS reaction” value ([10]; Sugar beet) is reported as “(+)”, the “Histological GUS reaction” value ([10]; Tobacco) is reported as 0 and the “Histological GUS reaction” value ([11]; Oilseed rape) is reported as 0. The “Histological GUS reaction” value ([11]; Oxalis, stem or petiole) was 0, the “Histological GUS reaction” value ([11]; Pea, stem or petiole) was 0 and the “Histological GUS reaction” value ([11]; Rhubarb, stem or petiole) was 0. The “Histological GUS reaction” value ([11]; Sitka spruce, embryogenic callus) was 0, the “Histological GUS reaction” value ([11]; Sugar beet, transgenic (2), NPT only) was 0 and the “Histological GUS reaction” value ([11]; Sugar beet, wild type) was 0. For the same compound, the “Histological GUS reaction” value ([11]; Tobacco) was 0, the “Histological GUS reaction” value ([11]; Tobacco, transgenic (2), NPT only) was 0 and the “Histological GUS reaction” value ([11]; Wheat, albino) was 0. For the same compound, the “stability at the pH of the substrate” value ([12]; equilibrium with saccharic acid) was “not a stable compound”.

For CC[C@H](CC[C@@H](C)[C@H]1CC[C@H]2[C@@H]3CC=C4C[C@@H](O[C@@H]5O[C@H](C(=O)O)[C@@H](O)[C@H](O)[C@H]5O)CC[C@]4(C)[C@H]3CC[C@]12C)C(C)C [Sitosteryl-β-D-glucuronide, β-sitosteryl-β-D-glucuronidide], the “Shoots per leaf disc” value [1] was 2.8.

With O=C([O-])[C@H]1O[C@@H](n2cnc3c(NCc4ccccc4)ncnc32)[C@H](O)[C@@H](O)[C@@H]1O.[Na+] [BA9GN sodium salt, 9-β-D-glucopyranuronosyl-6-benzylaminopurine, sodium salt] the “Hydrolysis by β-glucuronidase (GUS), result in words” value [4] was “no detectable production of BA”, the “production of BA after incubation with β-glucuronidase” value ([4]; 18 hours at 37° C.) was less than 1% and the “Shoot formation, GUS-” value [5] was “- ("-" means no shoot formation at concentrations below 250 μM)”. The “Shoot formation, GUS+” value [6] was “- ("-" means no shoot formation at concentrations below 250 μM)” and the acid hydrolysis ([12]; 1 mg/ml, 1M hydrochloric acid at 100° C. overnight, TLC) was “acid-labile”.

For O=P(O)(O)OC[C@H]1OC(O)[C@@H](O)[C@@H](O)[C@@H]1O (stereo partly drawn) [D-mannose-6-phosphate], the “Number of regenerated shoots per explant” value [2] was 0 and the “Number of regenerated shoots per explant” value [3] was 0.7.

In the case of O=C[C@@H](O)[C@@H](O)[C@H](O)[C@H](O)CO [mannose, D-mannose], the “Regenerated shoots/explant (%)” value ([13]; sucrose 0 g/l, mannose 5 g/l, up to 40th day) is reported as 0%, the “Regenerated shoots/explant (%)” value ([13]; sucrose 0 g/l, mannose 10 g/l) is reported as 0% and the “Regenerated shoots/explant (%)” value ([13]; sucrose 0 g/l, mannose 20 g/l) is reported as 0%. The “Regenerated shoots/explant (%)” value ([13]; sucrose 10 g/l, mannose 5 g/l) was 3%, the “Regenerated shoots/explant (%)” value ([13]; sucrose 10 g/l, mannose 10 g/l) was 0% and the “Regenerated shoots/explant (%)” value ([13]; sucrose 10 g/l, mannose 20 g/l) was 0%. For the same compound, the “Regenerated shoots/explant (%)” value ([13]; sucrose 20 g/l, mannose 5 g/l) was 0%, the “Regenerated shoots/explant (%)” value ([13]; sucrose 20 g/l, mannose 10 g/l) was 0% and the “Regenerated shoots/explant (%)” value ([13]; sucrose 20 g/l, mannose 20 g/l) was 0%. The “GUS+ shoots/explant” value [14] was 0, the “GUS+ shoots/sel. shoots (%)” value [14] was 0% and the “Number of regenerated shoots per explant” value [2] was 0. The “Number of regenerated shoots per explant” value [3] was 1.1, the “% transformation” value [15] was 2.9% and the stable transformation frequency [16] was 0.00028%. The “utilization as carbohydrate source, in words” value [17] was “cannot be utilized as the sole carbohydrate source”.
